Measured values taken from patent publication US6455495B1, “Methods and compositions for delivery of therapeutic agents to bone tissue employing conjugates of negatively charged peptide oligomers with therapeutic agents” (The Salk Institute for Biological Studies, priority 1997, dated 2002).

How the values were obtained:
[1] = R. Fujisawa et al. 1996, cited from earlier work
dihydrofolate reductase = details: 1 nmole peptide adsorbed on 1 mg hydroxyapatite; 0.52 nmole DHFR, pH 6.4, shaken 45 minutes; SDS gel, Coumassie Blue
Protocol: The supernatant was removed by centrifugation and the hydroxyapatite was washed with 100 μl of water. Dihydrofolate reductase (0.52 nmole) in 200 μl of buffer containing 0.1 M ammonium sulfate, 0.01 M potassium phosphate, at pH 6.4 and 5% glycerol was added to the hydroxyapatite and shaken for 45 minutes. The hydroxyapatite was separated from the supernatant, washed with 100 μl of water and then eluted twice with 20 μl of 0.02 M K4P2O7. […] The supernatant, the washes and the pyrophosphate eluate were analyzed on a 6% arylamide SDS gel using Coumassie Blue to visualize dihydrofolate reductase.

streptavidin = streptavidin (Streptomyces avidinii, UniProt P22629); assay: Recruitment of 125I-labeled streptavidin to hydroxyapatite; format: binding; details: 1 nmole peptide on 1 mg hydroxyapatite; 0.1 nmole 125I-streptavidin, 1 M KCl, 0.01 M phosphate pH 6.5, 45 minutes
Chain of streptavidin (P22629 25-183): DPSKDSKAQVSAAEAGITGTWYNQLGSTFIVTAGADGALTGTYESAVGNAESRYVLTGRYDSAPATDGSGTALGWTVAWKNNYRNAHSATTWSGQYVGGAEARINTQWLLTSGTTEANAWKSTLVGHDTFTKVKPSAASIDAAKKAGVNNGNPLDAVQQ
Protocol: The supernatant was removed by centrifugation, and the conjugate treated hydroxyapatite washed several times with 200 μl of H2O. The amounts of radioactivity found in the supernatant, wash and conjugate treated hydroxyapatite were then measured. In control experiments, biotin-glu10 was replaced by glu10. When a peptide bound to the hydroxyapatite was ligated to biotin about 70% of the streptavidin was recruited to the hydroxyapatite and 25-30% remained in the supernatant. In the control experiment, no more than 5% of the streptavidin was bound to the hydroxyapatite.

Row | Substance | adsorption onto hydroxyapatite [1] | dihydrofolate reductase found in the pyrophosphate eluate (dihydrofolate reductase) | streptavidin recruited (bound) to the hydroxyapatite (streptavidin) | effect on mineralization of hydroxyapatite ([1]; in the presence of calcium and phosphate)
1 | Aspartic acid hexamer [Asp6] | significantly adsorb |  |  | 
2 | Glutamic acid decapeptide [glu10] |  | only a small amount | no more than 5% | 
3 | glutamic acid hexamer [Glu6] | significantly adsorb |  |  | affect the mineralization
